Results from paper PMC10564737, “Structure-based design of a phosphotyrosine-masked covalent ligand targeting the E3 ligase SOCS2” (Nature Communications, 2023).
Values joined by “and” are separate entries in the source; they are usually repeats but may differ in a detail not shown here. Equal values may be shown once.

How the values were obtained:
[1] = molecular target: T1, HiBiT-SOCS2 fusion in HeLa cells (Homo sapiens, UniProt O14508); assay: Split-NanoLuc CETSA, live-cell mode; type: cell-based; set-up: Produrg CETSA screening, raw signal: reference not given here; settings: for Produrg CETSA screening, raw signal: 50uM 20hrs
T1 construct: encoding SOCS2 (32–198) in pBiT3.1-N expression vector; expressed in transfected cells; host or cells: HeLa
T1 sequence (O14508 32-198): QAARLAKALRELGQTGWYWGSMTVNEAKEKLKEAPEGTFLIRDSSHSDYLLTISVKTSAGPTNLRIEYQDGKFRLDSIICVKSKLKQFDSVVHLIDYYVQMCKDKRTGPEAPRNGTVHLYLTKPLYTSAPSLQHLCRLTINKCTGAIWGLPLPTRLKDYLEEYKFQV
T1 sequence (Q15370 whole entry, further chain, the tested form may be a part): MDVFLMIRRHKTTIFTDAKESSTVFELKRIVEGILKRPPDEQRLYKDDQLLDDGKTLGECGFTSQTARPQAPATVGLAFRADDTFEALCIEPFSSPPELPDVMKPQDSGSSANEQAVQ
T1 sequence (Q15369 whole entry, further chain, the tested form may be a part): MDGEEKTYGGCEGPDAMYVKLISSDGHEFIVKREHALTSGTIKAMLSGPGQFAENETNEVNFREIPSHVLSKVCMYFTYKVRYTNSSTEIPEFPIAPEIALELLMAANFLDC
Outline: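 HeLa cells transiently expressing N-terminal HiBiT-SOCS2 (32–198) were treated live with 50 μM prodrug for 20 h at 37 °C (1% DMSO), then heated 3 min across 40–72 °C. HiBiT lytic luminescence was normalized to the 40 °C signal, and apparent Tagg was fitted by Boltzmann sigmoid.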

[2] = system: reduced glutathione (GSH); assay: Glutathione (GSH) reactivity assay; type: physicochemical; settings: 5 mM reduced glutathione (GSH) in potassium phosphate buffer; 5 mM GSH, 37 °C, pH 7.4
Procedure: MN551/MN714 (1/10 μM) were incubated at 37 °C with 5 mM GSH in 100 mM potassium phosphate buffer, pH 7.4 (0.1% DMSO). […] Samples were then analyzed with an LC (Shimadzu LC-40)/MS/MS (Triple Quad 6500+). From the mass spectrum, peak area ratios (peak area analyte/peak area of a stable internal standard) were calculated and the percent compound remaining was determined relative to time zero.

SMILES: O=C(CCl)Nc1cccc(CNC(=O)[C@H](Cc2ccc(OP(=O)(O)O)cc2)NC(=O)Cc2ccc(F)cc2)c1 [MN551]
- Produrg CETSA screening, raw signal ([1]; n=1, temperature point 4 of 16, temperature not given): 51906 and 74271 and 83631
- Produrg CETSA screening, raw signal ([1]; n=1, temperature point 5 of 16, temperature not given): 62246 and 51464 and 85761
- Produrg CETSA screening, raw signal ([1]; n=1, temperature point 6 of 16, temperature not given): 108788 and 87275 and 106856
- Produrg CETSA screening, raw signal ([1]; n=1, temperature point 7 of 16, temperature not given): 132974 and 140531 and 140435
- Produrg CETSA screening, raw signal ([1]; n=1, temperature point 8 of 16, temperature not given): 134181 and 150079 and 139460
- Produrg CETSA screening, raw signal ([1]; n=1, temperature point 9 of 16, temperature not given): 189390 and 210146 and 247725
- Produrg CETSA screening, raw signal ([1]; n=1, temperature point 10 of 16, temperature not given): 222849 and 214562 and 260657
- Produrg CETSA screening, raw signal ([1]; n=1, temperature point 11 of 16, temperature not given): 306316 and 347377 and 363834
- Produrg CETSA screening, raw signal ([1]; n=1, temperature point 12 of 16, temperature not given): 497790 and 541910 and 544913
- Produrg CETSA screening, raw signal ([1]; n=1, temperature point 13 of 16, temperature not given): 482302 and 510836 and 519812
- Produrg CETSA screening, raw signal ([1]; n=1, temperature point 14 of 16, temperature not given): 563762 and 585700 and 590798
- Produrg CETSA screening, raw signal ([1]; n=1, temperature point 15 of 16, temperature not given): 665581 and 663053 and 701220
- Produrg CETSA screening, raw signal ([1]; n=1, temperature point 16 of 16, temperature not given): 691060 and 708174 and 757604
- Produrg CETSA screening, raw signal ([1]; n=2, temperature point 1 of 16, temperature not given): 29701 and 32684 and 58114
- Produrg CETSA screening, raw signal ([1]; n=2, temperature point 2 of 16, temperature not given): 46564 and 62785 and 77591
- Produrg CETSA screening, raw signal ([1]; n=2, temperature point 3 of 16, temperature not given): 123506 and 129184 and 115193
- Produrg CETSA screening, raw signal ([1]; n=2, temperature point 5 of 16, temperature not given): 47087 and 55743 and 78578
- Produrg CETSA screening, raw signal ([1]; n=2, temperature point 6 of 16, temperature not given): 98105 and 105595 and 117544
- Produrg CETSA screening, raw signal ([1]; n=2, temperature point 7 of 16, temperature not given): 144950 and 158240 and 171572
- Produrg CETSA screening, raw signal ([1]; n=2, temperature point 8 of 16, temperature not given): 135100 and 139766 and 168368
- Produrg CETSA screening, raw signal ([1]; n=2, temperature point 9 of 16, temperature not given): 229091 and 227474 and 261588
- Produrg CETSA screening, raw signal ([1]; n=2, temperature point 10 of 16, temperature not given): 267450 and 271378 and 303431
- Produrg CETSA screening, raw signal ([1]; n=2, temperature point 11 of 16, temperature not given): 327561 and 343740 and 362839
- Produrg CETSA screening, raw signal ([1]; n=2, temperature point 12 of 16, temperature not given): 483965 and 500271 and 541590
- Produrg CETSA screening, raw signal ([1]; n=2, temperature point 13 of 16, temperature not given): 506853 and 509845 and 531489
- Produrg CETSA screening, raw signal ([1]; n=2, temperature point 14 of 16, temperature not given): 591756 and 578279 and 588133
- Produrg CETSA screening, raw signal ([1]; n=2, temperature point 15 of 16, temperature not given): 597206 and 580381 and 582472
- Produrg CETSA screening, raw signal ([1]; n=2, temperature point 16 of 16, temperature not given): 620665 and 663583 and 665832
- Produrg CETSA screening, raw signal ([1]; n=3, Temp, 0C 59.2): 55622
- Produrg CETSA screening, raw signal ([1]; n=3, Temp, 0C 62.3): 33828 and 45066 and 46746
- Produrg CETSA screening, raw signal ([1]; n=3, Temp, 0C 66.1): 15770 and 17572 and 22773
- Produrg CETSA screening, raw signal ([1]; n=3, Temp, 0C 69.3): 14086 and 13763 and 18636
- Produrg CETSA screening, raw signal ([1]; n=3, Temp, 0C 71.1): 13296 and 19284 and 20568
- Produrg CETSA screening, raw signal ([1]; n=3, Temp, 0C 72): 12696 and 17884 and 19057
- Tagg shift, live-cell CETSA ([1]; HeLa cells, 50 μM, 20 h): 2 °C
- ΔT ([1]; Prodrug screen CETSA, live HeLa cells, 50 μM, 20 h, Mean n = 3): 1.99 oC
- ΔT, individual replicates n1-n3 ([1]; Prodrug screen CETSA, single replicates): 0.38 oC and 4.34 oC and 1.24 oC
- half-life [2]: > 1.17 h
